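Each compound was tested at five concentrations against cells in 96-well plates for 48 hours. GI50 marks 50% less growth. TGI: total growth inhibition.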
Key:
Experiment in all cases: growth of human tumour cells (NCI), 48 h
[1] = tested on: SK-MEL-28 melanoma
[2] = tested on: K-562 leukemia
[3] = tested on: HS 578T breast
[4] = tested on: SK-MEL-2 melanoma
[5] = tested on: LOX IMVI melanoma
[6] = tested on: 786-0 renal
[7] = tested on: MDA-MB-231 breast
[8] = tested on: TK-10 renal
[9] = tested on: MALME-3M melanoma
[10] = tested on: CAKI-1 renal
[11] = tested on: A498 renal
[12] = tested on: SK-MEL-5 melanoma
[13] = tested on: SR leukemia
[14] = tested on: ACHN renal
[15] = tested on: UO-31 renal
[16] = tested on: OVCAR-3 ovarian
[17] = tested on: NCI-H226 lung
[18] = tested on: MCF7 breast
[19] = tested on: SNB-19 CNS
[20] = tested on: HL-60(TB) leukemia
[21] = tested on: OVCAR-5 ovarian
[22] = tested on: HCC-2998 colon
[23] = tested on: HCT-116 colon
[24] = tested on: RPMI-8226 leukemia
[25] = tested on: NCI-H23 lung
[26] = tested on: MDA-MB-435
[27] = tested on: SN12C renal
[28] = tested on: MDA-MB-468 breast
[29] = tested on: IGROV1 ovarian
[30] = tested on: SNB-75 CNS
[31] = tested on: SF-268 CNS
[32] = tested on: M14 melanoma
[33] = tested on: NCI/ADR-RES ovarian
[34] = tested on: CCRF-CEM leukemia
[35] = tested on: EKVX NSCLC
[36] = tested on: HCT-15 colon
[37] = tested on: COLO 205 colon
[38] = tested on: SF-295 CNS
[39] = tested on: SF-539 CNS
[40] = tested on: HOP-92 NSCLC
[41] = tested on: MOLT-4 leukemia
[42] = tested on: SK-OV-3 ovarian
[43] = tested on: OVCAR-8 ovarian
[44] = tested on: DU-145 prostate
[45] = tested on: UACC-62 melanoma
[46] = tested on: BT-549 breast
[47] = tested on: UACC-257 melanoma
[48] = tested on: T-47D breast
[49] = tested on: NCI-H460 lung
[50] = tested on: KM12 colon
[51] = tested on: SW-620 colon
[52] = tested on: HOP-62 NSCLC
[53] = tested on: A549 NSCLC
[54] = tested on: RXF 393 renal
[55] = tested on: PC-3 prostate
[56] = tested on: OVCAR-4 ovarian
[57] = tested on: HT29 colon

In the case of `Cn1cc(-c2cc3nc(-c4c[nH]c5ccccc45)cc(N)n3n2)c2ccccc21`, the GI50 [1] is reported as 1.74 µM, the TGI [1] is reported as 3.18 µM and the GI50 [2] is reported as 1.74 µM. The TGI [2] was 3.54 µM, the GI50 [3] was 2.55 µM and the TGI [3] was 6.28 µM. The GI50 [4] was 1.87 µM, the TGI [4] was 3.73 µM and the GI50 [5] was 1.86 µM. It also gave a TGI [5] of 3.35 µM, a GI50 [6] of 1.51 µM and a TGI [6] of 2.94 µM. The GI50 [7] was 1.94 µM, the TGI [7] was 3.35 µM and the GI50 [8] was 1.77 µM. For the same compound, the TGI [8] was 4.65 µM, the GI50 [9] was 1.87 µM and the TGI [9] was 3.37 µM. The GI50 [10] was 1.68 µM, the TGI [10] was 3.31 µM and the GI50 [11] was 19.7 µM. For the same compound, the TGI [11] was 44.6 µM, the GI50 [12] was 1.95 µM and the TGI [12] was 4.1 µM. For the same compound, the GI50 [13] was 1.95 µM, the TGI [13] was 5.9 µM and the GI50 [14] was 1.76 µM. The TGI [14] was 3.22 µM, the GI50 [15] was 1.54 µM and the TGI [15] was 2.93 µM. The GI50 [16] was 1.74 µM, the TGI [16] was 3.4 µM and the GI50 [17] was 2.2 µM. The TGI [17] was 4.98 µM, the GI50 [18] was 1.68 µM and the TGI [18] was 3.39 µM. It also gave a GI50 [19] of 3.43 µM, a TGI [19] of 17.3 µM and a GI50 [20] of 1.5 µM. For the same compound, the TGI [20] was 3.22 µM, the GI50 [21] was 1.82 µM and the TGI [21] was 3.3 µM. For the same compound, the GI50 [22] was 1.65 µM, the TGI [22] was 3.06 µM and the GI50 [23] was 1.8 µM. It also gave a TGI [23] of 3.3 µM, a GI50 [24] of 2.11 µM and a TGI [24] of 5.07 µM. For the same compound, the GI50 [25] was 1.75 µM, the TGI [25] was 3.32 µM and the GI50 [26] was 1.78 µM. It also gave a TGI [26] of 3.46 µM, a GI50 [27] of 1.87 µM and a TGI [27] of 3.49 µM. The GI50 [28] was 1.55 µM, the TGI [28] was 2.93 µM and the GI50 [29] was 1.77 µM. For the same compound, the TGI [29] was 3.26 µM, the GI50 [30] was 1.74 µM and the TGI [30] was 3.93 µM. For the same compound, the GI50 [31] was 2.4 µM, the TGI [31] was 7.17 µM and the GI50 [32] was 1.75 µM. The TGI [32] was 3.34 µM, the GI50 [33] was 1.78 µM and the TGI [33] was 3.41 µM. It also gave a GI50 [34] of 1.95 µM, a TGI [34] of 4.2 µM and a GI50 [35] of 1.65 µM. The TGI [35] was 3.16 µM, the GI50 [36] was 1.6 µM and the TGI [36] was 3.01 µM. It also gave a GI50 [37] of 1.75 µM, a TGI [37] of 3.29 µM and a GI50 [38] of 1.64 µM. For the same compound, the TGI [38] was 3.19 µM, the GI50 [39] was 1.75 µM and the TGI [39] was 3.13 µM. It also gave a GI50 [40] of 1.94 µM, a TGI [40] of 3.75 µM and a GI50 [41] of 1.77 µM. For the same compound, the TGI [41] was 3.92 µM, the GI50 [42] was 10.5 µM and the TGI [42] was 46.8 µM. It also gave a GI50 [43] of 1.9 µM, a TGI [43] of 3.97 µM and a GI50 [44] of 2.04 µM. It also gave a TGI [44] of 4.73 µM, a GI50 [45] of 1.64 µM and a TGI [45] of 3.06 µM. The GI50 [46] was 12.4 µM and the TGI [46] was 54.4 µM.
With `COc1ccc(OC)c(/C=C/C(=O)c2nc3ccccc3n2Cc2ccc(F)cc2)c1` the GI50 [1] was 2.18 µM, the TGI [1] was 4.68 µM and the GI50 [2] was 2.52 µM. It also gave a TGI [2] greater than 100 µM, a GI50 [3] of 3.12 µM and a TGI [3] greater than 100 µM. For the same compound, the GI50 [4] was 1.94 µM, the TGI [4] was 4.19 µM and the GI50 [47] was 4.03 µM. For the same compound, the TGI [47] was 27.3 µM, the GI50 [5] was 1.56 µM and the TGI [5] was 3.06 µM. It also gave a GI50 [6] of 2.93 µM, a TGI [6] of 9.51 µM and a GI50 [7] of 2 µM. It also gave a TGI [7] of 4.43 µM, a GI50 [48] of 2.95 µM and a TGI [48] greater than 100 µM. The GI50 [8] was 3.26 µM, the TGI [8] was 17 µM and the GI50 [9] was 3 µM. For the same compound, the TGI [9] was 14.3 µM, the GI50 [10] was 3.08 µM and the TGI [10] was greater than 100 µM. The GI50 [11] was 34.8 µM, the TGI [11] was greater than 100 µM and the GI50 [12] was 2.73 µM. The TGI [12] was 10.1 µM, the GI50 [49] was 1.67 µM and the TGI [49] was 4 µM. For the same compound, the GI50 [13] was 2.2 µM, the TGI [13] was 7.4 µM and the GI50 [14] was 2.94 µM. It also gave a TGI [14] of 9.13 µM, a GI50 [15] of 2.37 µM and a TGI [15] of 8.61 µM. The GI50 [16] was 2.17 µM, the TGI [16] was 5.6 µM and the GI50 [17] was 4.03 µM. It also gave a TGI [17] of 25.5 µM, a GI50 [18] of 2.15 µM and a TGI [18] greater than 100 µM. The GI50 [19] was 2.31 µM, the TGI [19] was 6.08 µM and the GI50 [50] was 2.52 µM. For the same compound, the TGI [50] was 7.14 µM, the GI50 [20] was 1.57 µM and the TGI [20] was 5.93 µM. It also gave a GI50 [21] of 2.45 µM, a TGI [21] of 5.56 µM and a GI50 [22] of 1.95 µM. It also gave a TGI [22] of 3.93 µM, a GI50 [23] of 1.61 µM and a TGI [23] of 3.06 µM. For the same compound, the GI50 [24] was 2.05 µM, the TGI [24] was 5.89 µM and the GI50 [51] was 2.03 µM. For the same compound, the TGI [51] was 4.63 µM, the GI50 [52] was 3.08 µM and the TGI [52] was 11.2 µM. The GI50 [53] was 3.27 µM, the TGI [53] was greater than 100 µM and the GI50 [54] was 1.92 µM. For the same compound, the TGI [54] was 4.41 µM, the GI50 [25] was 2.24 µM and the TGI [25] was 6.62 µM. It also gave a GI50 [26] of 2.02 µM, a TGI [26] of 4.94 µM and a GI50 [27] of 3.47 µM. The TGI [27] was greater than 100 µM, the GI50 [28] was 2.11 µM and the TGI [28] was 5.8 µM. It also gave a GI50 [55] of 3.82 µM, a TGI [55] greater than 100 µM and a GI50 [29] of 3.01 µM. It also gave a TGI [29] of 11.1 µM, a GI50 [30] of 1.54 µM and a TGI [30] of 6.66 µM. It also gave a GI50 [31] of 3.5 µM, a TGI [31] greater than 100 µM and a GI50 [32] of 2.67 µM. The TGI [32] was 9.56 µM, the GI50 [35] was 2.77 µM and the TGI [35] was greater than 100 µM. For the same compound, the GI50 [36] was 1.62 µM, the TGI [36] was 3.69 µM and the GI50 [37] was 2.61 µM. The TGI [37] was 8.08 µM, the GI50 [38] was 3.05 µM and the TGI [38] was 13.2 µM. For the same compound, the GI50 [39] was 2.14 µM, the TGI [39] was 4.67 µM and the GI50 [40] was 2.88 µM. The TGI [40] was 43.8 µM, the GI50 [41] was 2.15 µM and the TGI [41] was 7.98 µM. For the same compound, the GI50 [42] was 11.4 µM, the TGI [42] was greater than 100 µM and the GI50 [44] was 3.53 µM. For the same compound, the TGI [44] was greater than 100 µM, the GI50 [56] was 5.02 µM and the TGI [56] was greater than 100 µM. The GI50 [57] was 2.34 µM, the TGI [57] was 5.43 µM and the GI50 [45] was 1.93 µM. The TGI [45] was 5.06 µM, the GI50 [46] was 2.61 µM and the TGI [46] was 7.6 µM.
